What was measured:
Assay type in all cases: cell-based, murine
[1] = test system: COX-2 protein in RAW 264.7 cells; assay: Western Blotting of LPS-induced COX-2 protein level; conditions: test compounds 10 and 20 μg/mL, 24 h
Description: (§1) FIG. 5 illustrates effects of rosmarinic acid (RosA), oleanolic acid (OA), ursolic acid (UA) and indomethacin on LPS-induced iNOS and COX-2 protein levels in RAW 264.7 cells. The cells were treated with test compounds (10 and 20 μg/mL) for 24 h. Equal amounts of total proteins (50 μg) were subjected to 10% SDS-PAGE. The expression of iNOS, COX-2 and β-actin protein was detected by Western Blot using specific antibodies. Quantification of iNOS and COX-2 protein expression was performed by densitometric analysis of the immunoblot. The values below the figure represent the relative intensity in protein expression of the bands normalized to β-actin.
(§2) RAW 264.7 cells, derived from murine macrophages, were procured from the American Type Culture Collection (Rockville, Md.). The cells were cultured in RPMI-1640 (without phenol red) supplemented with 10% endotoxin-free, heat-inactivated fetal calf serum (GIBCO, Grand Island, N.Y.), 100 units/mL penicillin, and […] streptomycin. When the RAW 264.7 cells reached a density of 2-3×10^6 cells/mL, they were activated by incubation in the medium containing E. coli LPS (lipopolysaccharide, 100 ng/mL). Various concentrations of test compounds dissolved in DMSO (dimethylsulfoxide) were combined together with LPS. The cells were treated with 0.05% DMSO as vehicle control.
(§3) The total proteins, isolated from cells after treatment with test compounds for 24 h, were extracted via addition of 200 μL of gold lysis buffer (50 mM Tris-HCl, pH 7.4; 1 mM NaF; 150 mM NaCl; 1 mM EGTA; 1 mM phenylmethanesulfonyl fluoride; 1% NP-40; and 10 μg/mL leupeptin) to the cell pellets on ice for 30 min, followed by centrifugation for 30 min at 4° C. The cytosolic fraction (supernatant) proteins were measured by Bio-Rad Protein Assay (Bio-Rad Laboratories, Munich, Germany). The samples (50 μg of proteins) were mixed with 5-fold sample buffer containing 0.3 M Tris-HCl (pH 6.8), 25% 2-mercaptoethanol, 12% sodium dodecyl sulfate (SDS), 25 mM EDTA, 20% glycerol, and 0.1% bromophenol blue. […]

[2] = test system: iNOS protein in RAW 264.7 cells; assay: Western Blotting of LPS-induced iNOS protein level; conditions: test compounds 10 and 20 μg/mL, 24 h
Description: as §1, §2, §3

[3] = test system: LPS-induced nitrite production in RAW 264.7 macrophages; assay: LPS-induced nitrite production assay (Griess reaction); conditions: concentration range of 10-100 μg/mL, dose-dependently; LPS 100 ng/mL, 24 h
Description: FIG. 4 illustrates anti-inflammatory effect of rosmarinic acid (RosA), ursolic acid (UA) and oleanolic acid (OA) on LPS-induced nitrite production in RAW 264.7 macrophages. The cells were treated with 100 ng/mL of LPS only or with different concentrations of test compounds for 24 h. At the end of incubation time, 100 μL of the culture medium was collected for nitrite assay. The values are expressed as means±standard error of triplicate tests.
as §2, with “Various concentrations of test compounds dissolved in DMSO (dimethylsulfoxide) were combined together with LPS. The cells were treated with 0.05% DMSO as vehicle control.” left out
The RAW 264.7 cells were treated with various compounds and LPS or LPS only. The supernatants were harvested and the amount of nitrite, an indicator of NO synthesis, was measured using the Griess reaction. […] After incubation at room temperature for 10 min, absorbance at 570 nm was measured with the ELISA reader (Thermo Labsystems, Multiskan Ascent, Finland).

| SMILES | COX-2 protein expression [1] | iNOS protein expression [2] | suppression of NO generation [3] |
| --- | --- | --- | --- |
| C[C@H]1[C@H](C)CC[C@]2(C(=O)O)CC[C@]3(C)C(=CC[C@@H]4[C@@]5(C)CC[C@H](O)C(C)(C)[C@@H]5CC[C@]43C)[C@H]12 [ursolic acid] | suppressed COX-2 protein expression | reduced expression of iNOS protein | – |
| O=C(/C=C/c1ccc(O)c(O)c1)O[C@H](Cc1ccc(O)c(O)c1)C(=O)O [rosmarinic acid] | suppressed COX-2 protein expression | reduced expression of iNOS protein | 19-100% |
| CC1(C)CC[C@]2(C(=O)O)CC[C@]3(C)C(=CC[C@@H]4[C@@]5(C)CC[C@H](O)C(C)(C)[C@@H]5CC[C@]43C)[C@@H]2C1 [oleanolic acid] | suppressed COX-2 protein expression | reduced expression of iNOS protein | – |
